Assay results from US20170007663A1, “METHODS AND COMPOSITIONS FOR TREATING AND […] DYSFUNCTION” (CORNELL UNIVERSITY, priority 2013, published 2017).
Non-standard residues stand in square brackets, D forms with d. No end group written: not given here.

How the values were obtained:
[1] = system: cerebral metabolic rate of oxygen (CMRO); test: Burst suppression model (Ching et al.) for cerebral metabolic rate of oxygen
From the text: A burst suppression model, as described in Ching et al., PNAS, 109(8): 3095-3100, (2012), will be used to determine the effect of D-Arg-2′,6′-Dmt-Lys-Phe-NH2 on CMRO. A range of 10^−9 to 10^−6 molar concentration of D-Arg-2′,6′-Dmt-Lys-Phe-NH2 will be assayed and compared to untreated and control peptide assays.

mu-opioid receptor = mu-opioid receptor (Homo sapiens, UniProt P35372); conditions: stated without a described test; cited from earlier work
mu-opioid receptor, sequence (P35372 whole entry, species assumed): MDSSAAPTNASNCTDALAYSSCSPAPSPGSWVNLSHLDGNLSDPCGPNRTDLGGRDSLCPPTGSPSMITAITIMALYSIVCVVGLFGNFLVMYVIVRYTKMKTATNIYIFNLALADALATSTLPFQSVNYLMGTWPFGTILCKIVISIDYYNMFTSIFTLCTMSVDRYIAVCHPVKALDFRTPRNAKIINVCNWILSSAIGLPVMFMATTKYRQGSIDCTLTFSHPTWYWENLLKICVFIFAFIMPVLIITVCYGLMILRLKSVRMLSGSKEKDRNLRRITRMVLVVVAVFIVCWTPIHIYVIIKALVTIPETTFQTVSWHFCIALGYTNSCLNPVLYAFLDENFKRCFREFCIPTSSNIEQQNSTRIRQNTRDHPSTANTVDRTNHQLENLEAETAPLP

[2] = system: several mammalian cell types; conditions: cited from earlier work

Substance | CMRO ([1]; 10^−9 to 10^−6 molar, compared to untreated and control peptide assays) | cerebral metabolism / neuronal cellular and network function ([1]; burst suppression model, FIG. 1) | mu-opioid receptor agonist activity (mu-opioid receptor) | penetration of the plasma membrane [2]
D-Arg-2′,6′-Dmt-Lys-Phe-NH2 | increase in CMRO | increase in cerebral metabolism and/or a restoration of neuronal cellular and network function | does not have mu-opioid receptor agonist activity | –
Tyr-D-Arg-Phe-Lys-NH2 | – | – | has mu-opioid receptor agonist activity | –
2′,6′-Dmt-D-Arg-Phe-Lys-NH2 | – | – | – | readily penetrates the plasma membrane of several mammalian cell types in an energy-independent manner
F[dR]FK-NH2 | – | – | does not have mu-opioid receptor agonist activity | –
